Experimental data as given in ChEMBL document CHEMBL3137356, “MMV Box Cryptosporidium parvum screening set”.

Each compound was assayed on Cryptosporidium parvum (assay: MMV: Cryptosporidium parvum oocysts (Iowa Strain) were prepared for use by treatment with 10 mM HCl (37 degrees C, 10 min) followed by 2 mM sodium taurocholate in phosphate-buffered saline (PBS) with Ca2+ and Mg2+ (16 degrees C, 10 min) in order to stimulate excystation. The high-throughput screen was carried out by inoculating >90% confluent human ileocecal adenocarcinoma (HCT-8) cells (ATCC) with ~5.5 x 10^3 primed oocysts per well. Experimental compounds or DMSO (vehicle) were added three hours after infection, and cells were incubated for 48 hours.).
Type: functional

| Compound | Inhibition [%] |
| --- | --- |
| COc1ccc(-c2cc3c(nn2)-c2ccccc2C3=O)cc1 | -19.28 |
| COc1ccc2c(c1)C1(Nc3ccccc3-c3nc4ccccc4n31)C(=O)N2 (configuration not stated) | -27.19 |
| COc1cccc(Cn2c(Oc3ccccc3)nc3c2c(=O)n(C)c(=O)n3C)c1 | -39.36 |
| CCOc1c(Cl)cc(CNCC(O)c2ccccc2)cc1OC (configuration not stated) | -11.22 |
| CCOc1ccccc1CN1CCc2nc3cc(C(C)(C)C)nn3c(O)c2C1 | -3.69 |
| Cc1cc(N2CCCC2)nc(Nc2ccc(NC(=O)CCc3ccccc3)cc2)n1 | 13.46 |
| CN1CCN(c2ncnc3c2[nH]c2ccc(Cl)cc23)CC1 | -51.61 |
| O=C1c2ccccc2-c2nnc(-c3ccc(Br)cc3)cc21 | -13.35 |
| CN(C)CCNc1cc(-c2ccccc2)nc2ccccc12 | -2.54 |
| CCOC(=O)C1=C(C)N=c2sc(=Cc3ccccc3O)c(=O)n2C1c1ccc(OC)c2ccccc12 (configuration not stated) | -32.82 |
| CCOC(=O)C1=C(C)N=c2sc(=Cc3cc(Cl)ccc3O)c(=O)n2C1c1ccc(OC)cc1 (configuration not stated) | -31.98 |
| Cc1nc2ccccc2c(O)c1CC=C(Cl)Cl | -7.486 |
| FC(F)(F)c1cccc(Nc2nc3ccccc3nc2Nc2cccc(C(F)(F)F)c2)c1 | -14.38 |
| COc1ccc2nc(C)cc(Nc3ccc(Cl)cc3)c2c1 | -41.72 |
| COc1ccc2nc(C)cc(Nc3cccc(O)c3)c2c1.Cl | -14.76 |
| CN(C)CCCNCc1ccc(-c2ccc(F)c(Cl)c2)o1.Cl | -9.329 |
| O=c1nc(C=Cc2ccc(Br)cc2)oc2ccccc12 | 36.68 |
| COc1ccc2nc(N)nc(C)c2c1 | 15.73 |
| CC(=O)c1ccc(NC(=O)CSc2nc(-c3ccccc3Cl)ns2)cc1 | 23.33 |
| O=C(NC1CCCCC1)C(c1cccs1)N(CCc1ccccc1)C(=O)c1ccco1 (configuration not stated) | -24.45 |
| Cc1sc2ncnc(Sc3nc4ccccc4[nH]3)c2c1C | 20.44 |
| COc1ccc(C(=O)NC(c2ccc(Cl)cc2Cl)c2cc(Cl)c3cccnc3c2O)cc1 (configuration not stated) | 66.57 |
| CCC(=O)Nc1nnc(Cc2ccc(OC)c(OC)c2)s1 | 5.406 |
| Cl.c1ccc2c(NCCCCCCNc3c4c(nc5ccccc35)CCCC4)c3c(nc2c1)CCCC3 | 13.18 |
| O=C(NCCCN1CCC(N2CCCCC2)CC1)C1=Cc2cc(Br)ccc2OC1 | -11.72 |
| Cc1ccnc(NC(c2cccc(OCc3ccccc3)c2)c2ccc3cccnc3c2O)c1 (configuration not stated) | 80.24 |

| Compound | Inhibition [%] |
| --- | --- |
| Nc1ccc(-c2nc3cc(Cc4ccc5[nH]c(-c6ccc(N)cc6)nc5c4)ccc3[nH]2)cc1 | -51.86 |
| CCCCOC(=O)c1ccc(Nc2cc(C)nc3ccc(OC)cc23)cc1 | 12.32 |
| O=C(Nc1ccc(CN2CCOCC2)cc1)c1ccc(-c2cc(Cl)ccc2Cl)o1 | 9.568 |
| N=c1c2ccccc2nnn1-c1cccc(C(F)(F)F)c1 | 6.889 |
| COc1cc(-c2nc(-c3ccc(Sc4ccccc4)cc3)c(-c3ccccc3)[nH]2)cc(OC)c1O | -39.67 |
| O=c1cc(NC2CCN(CCCc3ccccc3)CC2)c2cc(Cl)ccc2o1 | -2.261 |
| Cc1ccc(OCCCCCCNCCO)c(C)c1 | -13.88 |
| COc1ccc(C2NCCc3c2[nH]c2ccccc32)cc1CN1CCN(c2ccc(F)cc2)CC1.Cl (configuration not stated) | -2.167 |
| COc1cccc(C(=O)Nc2ccc(-c3nc4ccccc4[nH]3)cc2)c1 | -26.13 |
| OC(Cn1nnc2ccccc21)Cn1c2ccc(Br)cc2c2cc(Br)ccc21 (configuration not stated) | -11.24 |
| CCOc1ccc(-n2cc(-c3ccccc3)c3c(SCc4cc(C)ccc4C)ncnc32)cc1 | -2.262 |
| Cc1ccc(C)c(Cn2c(N3CCC(C(=O)NCc4cccs4)CC3)nc3ccccc32)c1 | -14.3 |
| Cc1ccccc1OCCSc1nc2ccc(NC(=O)c3cccs3)cc2s1 | -27.25 |
| CC1CCN(Cc2c(O)ccc3cc(-c4nc5ccccc5s4)c(=O)oc23)CC1 | -9.182 |
| Cc1ccc2cc3c(N)c4c(C)ccc(C)c4nc3nc2c1 | -22.09 |
| CC(C)CCNCC(O)Cn1c2ccccc2c2ccccc21.Cl (configuration not stated) | 46.75 |
| COc1ccc(C2C(C(=O)Nc3cccc(OC)c3)c3ccccc3C(=O)N2C2CCCCC2)cc1 (configuration not stated) | -43.91 |
| CCOC(=O)c1cnc2ccc(Cl)cc2c1NCCCN(C)C | 28.81 |
| CCOc1ccccc1NC(=O)CN1CCN(C(=O)c2ccco2)CC1 | -43.69 |
| c1ccc2c(NCCc3c[nH]c4ccccc34)c3ccccc3nc2c1 | 19.05 |
| O=C(Nc1ccc(C23CC4CC(CC(c5ccccc5)(C4)C2)C3)cc1)c1cccs1 | -2.299 |
| CCN(CC)CCCNc1ccnc2cc3ccccc3cc12 | -47.31 |
| O=C1c2ccccc2C2=Nc3ccccc3SC(c3cccc(F)c3)C12 (configuration not stated) | -5.793 |
| Cc1ccccc1OCCSc1nc2ccc(NC(=O)c3ccccc3)cc2s1 | 17.58 |
| CCOC(=O)c1cnc2c(C)cccc2c1Nc1ccc(C(C)=O)cc1 | -10.99 |
| O=C(Nc1ccc(-c2nc3cc4ccccc4cc3[nH]2)cc1)c1cccc(Br)c1 | -10.01 |

| Compound | Inhibition [%] |
| --- | --- |
| CCOc1cc2c(cc1OCC)C(c1cc(C)c(O)c(C)c1)NCC2.Cl (configuration not stated) | 13.77 |
| Cc1ccc(C2CC(C(F)(F)F)n3nc(C(=O)N4CCN(C(c5ccccc5)c5ccccc5)CC4)cc3N2)cc1 (configuration not stated) | -21.96 |
| Cc1ccc2nc(C)cc(Nc3cccc(C(F)(F)F)c3)c2c1.Cl | 53.25 |
| CC(C)c1ccc(CNCC(O)c2ccccc2)cc1.Cl (configuration not stated) | 13.18 |
| CC(C)(C)c1ccc(C(=O)Nc2c3c(nn2-c2cccc(Cl)c2)CSC3)cc1 | 7.325 |
| CCOc1cc2c(cc1OCC)C(c1cc(Cl)c(O)c(OCC)c1)NCC2 (configuration not stated) | -10.58 |
| COc1ccc(N2CCN(C(CNC(=O)CC(C)(C)C)c3ccc4c(c3)OCO4)CC2)cc1 (configuration not stated) | -20.28 |
| COc1cccc(C(=O)NC(c2ccc(C)cc2)c2cc(Cl)c3cccnc3c2O)c1 (configuration not stated) | 59.18 |
| COc1ccc(C(O)(CCC(C)C)C(CN2CCOCC2)c2ccc(Cl)cc2)cc1.Cl (configuration not stated) | -51.44 |
| CCCCCCn1c(=N)n(CC(O)COc2cccc(C)c2)c2ccccc21.Cl (configuration not stated) | 6.838 |
| O=C(O)C(=O)O.Oc1ccc(Br)cc1CN1CCN(Cc2cccc(F)c2)CC1 | -34.58 |
| COc1ccc(-c2cc(=O)oc3c4c(ccc23)OCN(Cc2ccc(F)cc2)C4)cc1 | -0.4054 |
| CCOC(=O)C1(Cc2ccccc2)CCN(Cc2cccc(OC)c2O)CC1 | -29.57 |
| CCCOCc1cc(CN2CCN(c3cccc(Cl)c3)CC2)c(O)c2ncccc12 | 58.2 |
| Oc1ccc(C(=C(Cl)Cl)c2ccc(O)cc2)cc1 | -24.26 |
| CCOc1ccc2c(c1)CN(Cc1ccc(Cl)cc1)CO2 | -64.93 |
| CC(C)(C)c1ccc2c(c1)CN(Cc1ccc(Cl)cc1)CO2 | -0.2226 |
| CCCCC(O)(c1ccc(Cl)cc1)C(CN1CCOCC1)c1ccc(Cl)cc1.Cl (configuration not stated) | 17.88 |
| CN(C)c1ccc(N2C(N)=NC(N)=NC2(C)C)cc1 | -33.57 |
| COc1ccc(OC)c(C2C3=C(CC(C)(C)CC3=O)N(c3ccc(Cl)c(Cl)c3)C3=C2C(=O)CC(C)(C)C3)c1 | 2.896 |
| COc1ccc(C(=O)NC(c2ccccc2Cl)c2cc(Cl)c3cccnc3c2O)cc1 (configuration not stated) | 32.62 |
| Cc1cc(=O)oc2c1ccc1oc(C(=O)c3ccccc3)c(C)c12 | 64.86 |
| COc1ccc(CN2CCN(Cc3ccccc3)CC2)c(O)c1 | -9.592 |
| COc1ccc2c(c1OC)C(=O)N1c3ccccc3N=C(c3ccc(C)cc3)CC21 (configuration not stated) | -57.7 |
| Oc1c(CN2CCN(c3ccccc3F)CC2)cc(Br)c2cccnc12 | 61.72 |
| CCCCCCc1cc(O)c2c3c(c(=O)oc2c1)CCC(C)C3 (configuration not stated) | -17.49 |

| Compound | Inhibition [%] |
| --- | --- |
| Cl.OC(CNCc1ccccc1)Cn1c2ccccc2c2ccccc21 (configuration not stated) | -37.25 |
| CCCc1c(C)nc2ccc(Br)cc2c1O | -49.14 |
| COc1ccc(CCNC(=O)c2cc(S(=O)(=O)N3CC(C)CC(C)C3)ccc2Sc2ccc(F)cc2)cc1OC (configuration not stated) | 16.29 |
| Cc1ccc(F)cc1NC(=O)c1cc(Cl)ccc1Nc1ccccc1 | -36.44 |
| CCOc1ccc(Nc2c3ccccc3nc3ccccc23)cc1.Cl | 26.95 |
| CC1=C(CC(=O)c2cccc([N+](=O)[O-])c2)C(=O)c2ccccc2C1=O | -15.31 |
| CCCCc1c(C)nc2c(OC)cccc2c1O | -24.29 |
| OC1CCCCC1C1(NC(=S)Nc2ccccc2)CCCCC1 (configuration not stated) | 3.232 |
| OC1=C2C(=Nc3ccccc3SC2c2ccc(Br)cc2)c2ccccc21 (configuration not stated) | 2.929 |
| COc1ccc(C)c2sc(N(Cc3cccnc3)C(=O)c3ccc(C#N)cc3)nc12 | -2.161 |
| Clc1ccc2c(N3CCCC3)ccnc2c1 | -28.37 |
| CCOC(=O)C1CCN(C(=O)CN2C(=O)c3ccccc3C2c2c[nH]c3ccccc23)CC1 (configuration not stated) | 23.12 |
| CCCCCCC(O)(c1ccc(F)cc1)C(CN1CCOCC1)c1ccccc1.Cl (configuration not stated) | 35.55 |
| COc1cc(OC)cc(N2C(=O)N(Cc3ccc(C(C)(C)C)cc3)c3ccccc3S2(=O)=O)c1 | -14.44 |
| CCOc1c(Br)cc(C2C(C(=O)OC)=CN(C)C=C2C(=O)OC)cc1OC | -4.752 |
| COc1ccc(C(=O)C2CC2c2ccc(Cl)cc2)cc1 (configuration not stated) | -36.26 |
| CCCCCn1c(=N)n(CC(O)COc2cccc(C)c2)c2ccccc21.Cl (configuration not stated) | -6.708 |
| O=c1c2c([nH]c3ccccc13)CCCC2 | 14.89 |
| COc1ccccc1N1C(=N)SC(=Cc2ccc(OCc3ccccc3F)cc2)C1=O | -8.054 |
| CCN1CCN(c2c(C(=O)c3ccccc3)cnc3cc(OC)c(OC)cc23)CC1 | -1.231 |
| Cc1c(C)n(CC(O)CNC2CCCCC2C)c2ccccc12 (configuration not stated) | -20.79 |
| Cc1ccc(S(=O)(=O)c2c(COC(=O)c3cccc(C)c3)c(-c3ccccc3)nn2C)cc1 | -24.68 |
| CCOC(=O)c1c[nH]c2c(CC)cccc2c1=O | 0.8782 |
| CCCCN(CCCC)S(=O)(=O)c1ccc(NC(=O)c2ccco2)cc1 | -29.51 |
